From the supplement of paper PMC3974653 come the findings set out here.

For experiment [1], the system named is MTT (mouse pheochromocytoma). As to the kind of experiment: efficacy (maximal response) relative to doxorubicin = -100% and DMSO = 0%; higher = less inhibition of viability. The conditions noted are these: (24 or 48 h).
Experiment [2] concerns MTT (mouse pheochromocytoma). As to the kind of experiment: IC50 of cell viability (ATP content); AC50 where efficacy is positive. The conditions noted are these: (24 or 48 h).

As for `COc1cc(NCc2ccc3nc(N)nc(N)c3c2C)cc(OC)c1OC` [TRIMETREXATE GLUCURONATE], in experiment [1], the efficacy is -50.7%. Further, in experiment [2], the “IC50 of cell viability” value came to 0.376 µM.
As for `Cc1cc(-c2ccc(/N=N/c3c(S(=O)(=O)[O-])cc4cc(S(=O)(=O)[O-])cc(N)c4c3O)c(C)c2)ccc1/N=N/c1c(S(=O)(=O)[O-])cc2cc(S(=O)(=O)[O-])cc(N)c2c1O` [TRYPAN BLUE], the efficacy in experiment [1] is -37.4%. In addition, the “IC50 of cell viability” value in experiment [2] is 2.37 µM.
Regarding `c1ccc2[nH]c(-c3cscn3)nc2c1` [Thiabendazole], the efficacy in experiment [1] was -40%. The “IC50 of cell viability” value in experiment [2] amounted to 9.44 µM.
For the compound `OC[C@H]1O[C@@H](n2cnc3c(S)ncnc32)[C@H](O)[C@@H]1O` [Thionosine], the efficacy in experiment [1] is -85.4%. The “IC50 of cell viability” value in experiment [2] was 18.8 µM.
Take `O=C(Nc1ccc(Br)cc1)c1cc(Br)c(Br)s1` [Tibrofan]: the efficacy in experiment [1] was -64.5%. Besides, the “IC50 of cell viability” value in experiment [2] was determined as 26.6 µM.
In the same order, the values of `CCCOc1ccc2nc(NC(=O)OC)sc2c1` [Tioxidazole] are -55.6% and 11.9 µM.
Turning to `O=C(Nc1ccc(Cl)cc1)Nc1ccc(Cl)c(Cl)c1` [Triclocarban], the efficacy in experiment [1] was -121%. In experiment [2], the “IC50 of cell viability” value was found to be 26.6 µM.
Take `COc1cc2c(Nc3ccc(Br)cc3F)ncnc2cc1OCC1CCN(C)CC1` [VANDETANIB]: the efficacy in experiment [1] was -102%. Besides, the “IC50 of cell viability” value in experiment [2] amounted to 26.6 µM.
As for `CCCCC(=O)OCC(=O)[C@]1(O)Cc2c(O)c3c(c(O)c2[C@H](OC2CC(NC(=O)C(F)(F)F)C(O)C(C)O2)C1)C(=O)c1c(OC)cccc1C3=O` (some centres not stated) [Valrubicin], the efficacy in experiment [1] is -78%. Further, the “IC50 of cell viability” value in experiment [2] is 16.8 µM.
In the same order, the values of `[Zn++].[O-]N1\C=C/C=C\C1=S.[O-]N2\C=C/C=C\C2=S` [Zinc pyrithione] are -90.6% and 2.11 µM.
Regarding `OCCN1CCN(CC/C=C2/c3ccccc3Sc3ccc(C(F)(F)F)cc32)CC1` [cis-(Z)-FLUPENTHIXOL], the efficacy in experiment [1] is -85.6%. In addition, the “IC50 of cell viability” value in experiment [2] was found to be 23.7 µM.
